Test results taken from publication PMC12692291, “Development and In Vitro Evaluation of [^64Cu]Cu-NOTA-TP-PSMA, a Novel Radiotheranostic Agent Against Prostate Cancer” (International Journal of Molecular Sciences, 2025).
Like-named read-outs stand apart in the source and are kept apart here.

Experiments:
[1] = tested on: HEK-293 cells; test: PrestoBlue cytotoxicity assay in HEK-293 cells; type: cell-based, human; conditions: read-out: EC50 HEK293
Procedure: (§1) The cytotoxicity of compounds 1–3, ^natCu-NOTA-TP-PSMA, and cisplatin (platinum-based drug) were assessed with PrestoBlue, a resazurin-based method to assess mitochondrial function in LNCaP and HEK-293 cells at 24, 48, and 72 h. Effective concentration (EC50) values summarized in Table 3 were calculated from the dose–response curves of each compound (Figure S7).
(§2) Cytotoxicity was evaluated using a resazurin-based assay (PrestoBlue) in 96-well plates. LNCaP (15,000 cells/well) and HEK-293 (10,000 cells/well) were seeded and incubated for 72 h. Cells were then treated with serial dilutions of [^64Cu]Cu-NOTA-TP-PSMA and controls for 24, 48, or 72 h. After treatment, cells were rinsed with PBS and incubated with PrestoBlue reagent for 40 min. Fluorescence was measured at 570 nm (excitation) and 610 nm (emission). Background readings from blank wells were subtracted. Cell viability was calculated relative to untreated controls. IC50 values were determined using dose–response curves. Controls included [^64Cu]Cu-NOTA-TP, [^64Cu]Cu-NOTA-PSMA, ^natCu-NOTA-TP-PSMA, and cisplatin (0–500 µM in 0.9% saline). All assays were performed in triplicate and all data presented in Results are the average of three independent experiments. TP conjugates were dissolved in 1% DMSO and diluted in saline. Inhibitory concentration 50 (IC50) values were calculated to quantify the effectiveness of the compounds.

[2] = tested on: LNCaP cells; type: cell-based
Procedure: as §1, §2

[3] = Solubility in aqueous media; type: physicochemical
[4] = tested on: HEK-293 cells; test: Efflux (retention) study in HEK-293 cells; type: cell-based, human; conditions: Table S3 second part (HEK-293)
Procedure: (§3) Efflux studies were conducted by incubating the cells with the compound for an initial period of 1 h, after which the incubation medium was replaced with fresh, compound-free medium. The retained intracellular radioactivity was then measured at various time points up to 24 h and expressed as the percentage of retention relative to the 0-h time point, defined as the time immediately after medium replacement.

[5] = tested on: LNCaP cells; test: Nuclear localization in LNCaP cells; type: cell-based
Procedure: (§4) To assess nuclear localization, LNCaP and HEK-293 cells were incubated with 1 MBq of [^64Cu]Cu-NOTA-TP-PSMA 1 for 24, 48, and 72 h. Nuclear extraction was performed following a previously established protocol. Following incubation, cells were lysed and fractionated using cytoskeletal buffer to isolate nuclear components. Nuclear and cytoplasmic radioactivity were measured using a HIDEX automatic gamma counter. Data were used to evaluate time-dependent nuclear accumulation of the tracer.

[6] = tested on: LNCaP cells; test: Cellular uptake and internalization in LNCaP cells; type: cell-based; conditions: LNCaP, 24 h, 37 °C, 1 nM
Procedure: LNCaP cells (1 × 10^5 cells/well) were seeded into 24-well plates and incubated for 72 h. Cells were treated with 1nM [^64Cu]Cu-NOTA-TP-PSMA or control monomers ([^64Cu]Cu-NOTA-TP and [^64Cu]Cu-NOTA-PSMA), each containing 0.1 MBq of radioactivity in RPMI-1640 medium.
Uptake and internalization were assessed at multiple time points (30 min to 24 h). At each timepoint, cells were washed with cold PBS, detached with trypsin, and counted using a hemocytometer. For internalization studies, surface-bound radioactivity was removed using 50 mM glycine-HCl buffer (pH 2.2) for 5 min, followed by additional PBS washes.
To investigate the internalization mechanism, parallel experiments were conducted at 4 °C to evaluate passive versus active uptake. Receptor specificity was assessed via blocking assays using 1 µM ^natCu-NOTA-TP-PSMA (1000-fold excess) co-incubated with 1 nM radiolabeled tracer. Post-incubation, intracellular radioactivity was quantified using a HIDEX gamma counter. All results were normalized to 10^6 cells and expressed as percent counts per minute per million cells (%CPM/10^6 cells).

[7] = tested on: LNCaP cells; test: Efflux (retention) study in LNCaP cells; type: cell-based; conditions: Table S3 first part (LNCaP)
Procedure: as §3

[8] = tested on: HEK-293 cells; test: Nuclear localization in HEK-293 cells; type: cell-based, human
Procedure: as §4

**Q.** Which EC50 ([1]; 24 h) does the source give for `N.N.[Cl][Pt][Cl]` [Cisplatin, cisplatin, reference compound] here?
**A.** 31.3 µM

**Q.** And the EC50 ([1]; 48 h)?
**A.** 41 µM

**Q.** What about the EC50 ([1]; 72 h) of the same compound?
**A.** 27.5 µM

**Q.** And the EC50 ([2]; 24 h)?
**A.** 81 µM

**Q.** What about the EC50 ([2]; 48 h) of the same compound?
**A.** 30.4 µM

**Q.** And the EC50 ([2]; 72 h)?
**A.** 22.9 µM

**Q.** With `O=C(O)CC[C@H](NC(=O)N[C@@H](CCCCNC(=O)[C@@H](Cc1ccc2ccccc2c1)NC(=O)[C@H]1CC[C@H](CNC(=O)CNC(=O)COCCOCCNC(=O)CN2CCN(CC(=O)O)CCN(CC(=O)O)CC2)CC1)C(=O)O)C(=O)O` [^natCu-NOTA-PSMA, metal not drawn] as the compound, how does the solubility [3] read?
**A.** readily soluble in aqueous media

**Q.** For `O=C(O)CC[C@H](NC(=O)N[C@@H](CCCCNC(=O)[C@@H](Cc1ccc2ccccc2c1)NC(=O)C1CCC(CNC(=O)C(CCCCNC(=O)c2cc3[n+]4c(c2)-c2cccc[n+]2[Pt-2]4([Cl])[n+]2ccccc2-3)NC(=O)COCCOCCNC(=O)CN2CCN3CCN(CC2)CC(=O)[O][Cu][O]C(=O)C3)CC1)C(=O)O)C(=O)O` (stereo partly drawn) [^natCu-NOTA-TP-PSMA], which solubility [3] is on record?
**A.** reduced solubility

**Q.** For `O=C(O)CC[C@H](NC(=O)N[C@@H](CCCCNC(=O)[C@@H](Cc1ccc2ccccc2c1)NC(=O)[C@H]1CC[C@H](CNC(=O)CNC(=O)COCCOCCNC(=O)CN2CCN(CC(=O)O)CCN(CC(=O)O)CC2)CC1)C(=O)O)C(=O)O` [[^64Cu]Cu-NOTA-PSMA 3, metal not drawn], which Retained activity ([4]; 0 h after medium replacement) is on record?
**A.** 100 ± 0 %CPM/106 cells

**Q.** What about the Retained activity ([4]; 1 h) of the same compound?
**A.** 59.4 ± 22.3 %CPM/106 cells

**Q.** What about the Retained activity ([4]; 2 h) of the same compound?
**A.** 45.1 ± 14.5 %CPM/106 cells

**Q.** What about the Retained activity ([4]; 4 h) of the same compound?
**A.** 38.4 ± 4.1 %CPM/106 cells

**Q.** And the Retained activity ([4]; 24 h)?
**A.** 22.0 ± 1.5 %CPM/106 cells

**Q.** What about the “nuclear uptake fold difference LNCaP vs HEK-293” value ([5]; 24 h) of the same compound?
**A.** 5.8 fold

**Q.** What about the “nuclear uptake in LNCaP cells” value ([5]; 48 h) of the same compound?
**A.** 0.30 ± 0.13%

**Q.** And the “nuclear uptake fold difference LNCaP vs HEK-293” value ([5]; 72 h)?
**A.** 1.5 fold

**Q.** What about the “nuclear uptake in LNCaP cells” value ([5]; 72 h) of the same compound?
**A.** 0.35 ± 0.07%

**Q.** And the “Nuclear uptake LNCaP” value ([5]; Table S4, 24 h)?
**A.** 0.44 ± 0.25 %ID/10⁶ cells

**Q.** What about the “Nuclear uptake LNCaP” value ([5]; Table S4, 48 h) of the same compound?
**A.** 0.77 ± 1.02 %ID/10⁶ cells

**Q.** What about the “Nuclear uptake LNCaP” value ([5]; Table S4, 72 h) of the same compound?
**A.** 0.35 ± 0.07 %ID/10⁶ cells

**Q.** And the “fold less cytotoxic than compound 1” value [2]?
**A.** 5–16 fold

**Q.** What about the Internalization [6] of the same compound?
**A.** 16.7 ± 1.6 %CPM/10^6 cells

**Q.** What about the Uptake [6] of the same compound?
**A.** 22.8 ± 1.2 %CPM/10^6 cells

**Q.** What about the Retained activity ([7]; 0 h after medium replacement) of the same compound?
**A.** 100 ± 0 %CPM/106 cells

**Q.** What about the Retained activity ([7]; 1 h) of the same compound?
**A.** 54.8 ± 10.0 %CPM/106 cells

**Q.** And the Retained activity ([7]; 2 h)?
**A.** 49.6 ± 8.1 %CPM/106 cells

**Q.** What about the Retained activity ([7]; 4 h) of the same compound?
**A.** 46.6 ± 8.1 %CPM/106 cells

**Q.** What about the Retained activity ([7]; 24 h) of the same compound?
**A.** 39.2 ± 7.9 %CPM/106 cells

**Q.** What about the “nuclear uptake in HEK-293 cells” value ([8]; 48 h) of the same compound?
**A.** 0.13 ± 0.05%

**Q.** And the “nuclear uptake in HEK-293 cells” value ([8]; 72 h)?
**A.** 0.23 ± 0.04%

**Q.** What about the “Nuclear uptake HEK-293” value ([8]; Table S4, 24 h) of the same compound?
**A.** 0.07 ± 0.05 %ID/10⁶ cells

**Q.** What about the “Nuclear uptake HEK-293” value ([8]; Table S4, 48 h) of the same compound?
**A.** 0.13 ± 0.05 %ID/10⁶ cells

**Q.** What about the “Nuclear uptake HEK-293” value ([8]; Table S4, 72 h) of the same compound?
**A.** 0.23 ± 0.04 %ID/10⁶ cells
